From patent US11524968B2, “Heterocyclic compound as a protein kinase inhibitor” (HK inno.N Corporation, priority 2017, dated 2022)

Target: JAK1 (Homo sapiens (Human), UniProt P23458)
Assay: Analysis of JAK1 activity inhibition ability (ADP-Glo Kinase Assay)
Assay type: biochemical
Settings: JAK1 enzyme, ADP-Glo luminescence, ATP 250 uM, IRS-itide substrate, 30° C. 40 minutes; read-out: IC50
Outline: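 JAK1 enzyme, IRS-itide substrate (40 ng/mL) and 250 uM ATP, both as prepared in kinase buffer (Tris-HCl pH 7.5, MgCl2, BSA, DTT), reacted with compound 40 min at 30 °C. ADP formed was detected by ADP-Glo luminescence; IC50 is the concentration giving 50% inhibition versus control.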

JAK1, sequence (P23458 whole entry): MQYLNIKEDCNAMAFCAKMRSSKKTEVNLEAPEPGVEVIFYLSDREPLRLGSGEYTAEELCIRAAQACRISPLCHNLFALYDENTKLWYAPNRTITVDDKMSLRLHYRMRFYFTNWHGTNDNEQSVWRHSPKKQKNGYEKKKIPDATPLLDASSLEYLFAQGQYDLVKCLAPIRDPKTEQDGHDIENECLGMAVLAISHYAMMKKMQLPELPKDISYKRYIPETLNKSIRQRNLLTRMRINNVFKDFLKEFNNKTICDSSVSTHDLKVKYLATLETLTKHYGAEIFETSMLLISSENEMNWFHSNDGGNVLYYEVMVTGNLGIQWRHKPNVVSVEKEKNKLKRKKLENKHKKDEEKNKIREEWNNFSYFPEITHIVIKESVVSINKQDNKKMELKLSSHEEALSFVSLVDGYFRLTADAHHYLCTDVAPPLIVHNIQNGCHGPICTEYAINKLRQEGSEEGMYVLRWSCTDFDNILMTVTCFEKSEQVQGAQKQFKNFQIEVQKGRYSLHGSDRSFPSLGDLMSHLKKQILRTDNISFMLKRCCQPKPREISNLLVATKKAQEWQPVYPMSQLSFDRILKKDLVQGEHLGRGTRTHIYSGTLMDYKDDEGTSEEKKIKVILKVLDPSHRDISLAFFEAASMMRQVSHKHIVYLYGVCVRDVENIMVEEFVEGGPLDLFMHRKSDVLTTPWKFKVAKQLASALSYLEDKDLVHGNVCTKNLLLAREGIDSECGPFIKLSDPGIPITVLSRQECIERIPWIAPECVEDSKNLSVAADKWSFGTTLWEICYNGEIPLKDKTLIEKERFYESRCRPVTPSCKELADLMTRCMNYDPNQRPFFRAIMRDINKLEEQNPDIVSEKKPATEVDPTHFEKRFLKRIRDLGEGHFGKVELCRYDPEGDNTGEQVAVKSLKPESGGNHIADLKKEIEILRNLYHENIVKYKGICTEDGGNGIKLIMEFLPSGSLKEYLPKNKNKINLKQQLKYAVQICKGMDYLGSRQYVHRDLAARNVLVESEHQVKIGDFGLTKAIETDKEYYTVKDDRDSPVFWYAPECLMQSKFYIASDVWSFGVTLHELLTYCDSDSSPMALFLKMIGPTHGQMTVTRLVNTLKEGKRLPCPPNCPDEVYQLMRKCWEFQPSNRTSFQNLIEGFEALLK

| SMILES | IC50 [nM] |
| --- | --- |
| CCCCOc1ccc(-c2cc(NC(=O)C3CC3)nc3[nH]ccc23)cc1 [Example 643, N-(4-(4-butoxyphenyl)-1H-pyrrolo[2,3-b]pyridin-6-yl)cyclopropanecarboxamide] | > 200 |
| N#Cc1ccc(COc2ccc(-c3nc(NC(=O)C4CC4)nc4[nH]cnc34)cc2)cn1 [Example 644, N-(6-(4-((6-cyanopyridin-3-yl)methoxy)phenyl)-9H-purin-2-yl)cyclopropanecarboxamide] | > 200 |
| CCS(=O)(=O)N1C2CCC1CC(c1cc(NC(=O)C3CC3)nc3[nH]ccc13)C2 (stereo not shown) [Example 646, N-(4-(8-(ethylsulfonyl)-8-azabicyclo[3.2.1]octan-3-yl)-1H-pyrrolo[2,3-b]pyridin-6-yl)cyclopropanecarboxamide] | > 200 |
| O=C(Nc1cc(C2CC3CCC(C2)N3S(=O)(=O)C2CC2)c2cc[nH]c2n1)C1CC1 (stereo not shown) [Example 647, N-(4-(8-(cyclopropylsulfonyl)-8-azabicyclo[3.2.1]octan-3-yl)-1H-pyrrolo[2,3-b]pyridin-6-yl)cyclopropanecarboxamide] | > 200 |
| O=C(Nc1cc(C2CC3CCC(C2)N3S(=O)(=O)CCCF)c2cc[nH]c2n1)C1CC1 (stereo not shown) [Example 648, N-(4-(8-((3-fluoropropyl)sulfonyl)-8-azabicyclo[3.2.1]octan-3-yl)-1H-pyrrolo[2,3-b]pyridin-6-yl)cyclopropanecarboxamide] | > 200 |
| O=C(Nc1cc(C2CC3CCC(C2)N3S(=O)(=O)c2ccc(F)c(F)c2)c2cc[nH]c2n1)C1CC1 (stereo not shown) [Example 649, N-(4-(8-((3,4-difluorophenyl)sulfonyl)-8-azabicyclo[3.2.1]octan-3-yl)-1H-pyrrolo[2,3-b]pyridin-6-yl)cyclopropanecarboxamide] | > 200 |
| O=C(Nc1cc(C2CC3CCC(C2)N3C(=O)C2CC2)c2cc[nH]c2n1)C1CC1 (stereo not shown) [Example 650, N-(4-(8-(cyclopropanecarbonyl)-8-azabicyclo[3.2.1]octan-3-yl)-1H-pyrrolo[2,3-b]pyridin-6-yl)cyclopropanecarboxamide] | > 200 |
| CCCCC(=O)N1C2CCC1CC(c1cc(NC(=O)C3CC3)nc3[nH]ccc13)C2 (stereo not shown) [Example 651, N-(4-(8-pentanoyl-8-azabicyclo[3.2.1]octan-3-yl)-1H-pyrrolo[2,3-b]pyridin-6-yl)cyclopropanecarboxamide] | > 200 |
| CCNC(=S)N1C2CCC1CC(c1cc(NC(=O)C3CC3)nc3[nH]ccc13)C2 (stereo not shown) [Example 657, N-(4-(8-(ethylcarbamothioyl)-8-azabicyclo[3.2.1]octan-3-yl)-1H-pyrrolo[2,3-b]pyridin-6-yl)cyclopropanecarboxamide] | 20 to 200 |
| N#CCCCS(=O)(=O)N1C2CCC1CN(c1cc(NC(=O)C3CC3)nc3[nH]ccc13)C2 [Example 664, N-(4-(8-((3-cyanopropyl)sulfonyl)-3,8-diazabicyclo[3.2.1]octan-3-yl)-1H-pyrrolo[2,3-b]pyridin-6-yl)cyclopropanecarboxamide] | 20 to 200 |
| N#CCC1(CS(=O)(=O)N2C3CCC2CN(c2cc(NC(=O)C4CC4)nc4[nH]ccc24)C3)CC1 [Example 665, N-(4-(8-(((1-(cyanomethyl)cyclopropyl)methyl)sulfonyl)-3,8-diazabicyclo[3.2.1]octan-3-yl)-1H-pyrrolo[2,3-b]pyridin-6-yl)cyclopropanecarboxamide] | 20 to 200 |
| O=C(Nc1cc(N2CC3CCC(C2)N3S(=O)(=O)CCCC(F)(F)F)c2cc[nH]c2n1)C1CC1 [Example 666, N-(4-(8-((4,4,4-trifluorobutyl)sulfonyl)-3,8-diazabicyclo[3.2.1]octan-3-yl)-1H-pyrrolo[2,3-b]pyridin-6-yl)cyclopropanecarboxamide] | > 200 |
| N#CC1(CS(=O)(=O)N2C3CCC2CN(c2cc(NC(=O)C4CC4)nc4[nH]ccc24)C3)CC1 [Example 667, N-(4-(8-(((1-cyanocyclopropyl)methyl)sulfonyl)-3,8-diazabicyclo[3.2.1]octan-3-yl)-1H-pyrrolo[2,3-b]pyridin-6-yl)cyclopropanecarboxamide] | < 20 |
| CCS(=O)(=O)N1C2CCC1CN(c1nc(NC(=O)C3CC3)nc3[nH]ccc13)C2 [Example 669, N-(4-(8-(ethylsulfonyl)-3,8-diazabicyclo[3.2.1]octan-3-yl)-7H-pyrrolo[2,3-d]pyrimidin-2-yl)cyclopropanecarboxamide] | 20 to 200 |
| N#CCC(=O)N1C2CCC1CN(c1cc(NC(=O)C3CC3)nc3[nH]ccc13)C2 [Example 677, N-(4-(8-(2-cyanoacetyl)-3,8-diazabicyclo[3.2.1]octan-3-yl)-1H-pyrrolo[2,3-b]pyridin-6-yl)cyclopropanecarboxamide] | < 20 |

Continued, values first:

| IC50 [nM] | SMILES |
| --- | --- |
| 20 to 200 | CCS(=O)(=O)NC1CCC(c2cc(NC(=O)C3CC3)nc3[nH]ccc23)CC1 (stereo not shown) [Example 645, N-(4-(4-(ethylsulfonamido)cyclohexyl)-1H-pyrrolo[2,3-b]pyridin-6-yl)cyclopropanecarboxamide] |
| 20 to 200 | N#CCC(=O)N1CCC(c2cc(NC(=O)C3CC3)nc3[nH]ccc23)CC1 [Example 652, N-(4-(1-(2-cyanoacetyl)piperidin-4-yl)-1H-pyrrolo[2,3-b]pyridin-6-yl)cyclopropanecarboxamide] |
| > 200 | CCCCNC(=O)N1CCC(c2cc(NC(=O)C3CC3)nc3[nH]ccc23)CC1 [Example 653, N-butyl-4-(6-(cyclopropanecarboxamido)-1H-pyrrolo[2,3-b]pyridin-4-yl)piperidine-1-carboxamide] |
| > 200 | O=C(Nc1cc(C2CCN(C(=O)NCC(F)(F)F)CC2)c2cc[nH]c2n1)C1CC1 [Example 654, 4-(6-(cyclopropanecarboxamido)-1H-pyrrolo[2,3-b]pyridin-4-yl)-N-(2,2,2-trifluoroethyl)piperidine-1-carboxamide] |
| > 200 | CC(C)(C)OC(=O)N1CCC(c2cc(NC(=O)C3CC3)nc3[nH]ccc23)C(O)C1 (stereo not shown) [Example 655, tert-butyl 4-(6-(cyclopropanecarboxamido)-1H-pyrrolo[2,3-b]pyridin-4-yl)-3-hydroxypiperidine-1-carboxylate] |
| > 200 | CC(C)(C)OC(=O)N1CCC(c2cc(NC(=O)C3CC3)nc3[nH]ccc23)C(F)C1 (stereo not shown) [Example 656, tert-butyl 4-(6-(cyclopropanecarboxamido)-1H-pyrrolo[2,3-b]pyridin-4-yl)-3-fluoropiperidine-1-carboxylate] |
| > 200 | CCNC(=S)N1CCC(c2cc(NC(=O)C3CC3)nc3[nH]ccc23)CC1 [Example 658, N-(4-(1-(ethylcarbamothioyl)piperidin-4-yl)-1H-pyrrolo[2,3-b]pyridin-6-yl)cyclopropanecarboxamide] |
| > 200 | CCCCNC(=S)N1CCC(c2cc(NC(=O)C3CC3)nc3[nH]ccc23)CC1 [Example 659, N-(4-(1-(butylcarbamothioyl)piperidin-4-yl)-1H-pyrrolo[2,3-b]pyridin-6-yl)cyclopropanecarboxamide] |
| > 200 | CS(=O)(=O)N1CCN(c2cc(NC(=O)C3CC3)nc3[nH]ccc23)CC1 [Example 660, N-(4-(4-(methylsulfonyl)piperazin-1-yl)-1H-pyrrolo[2,3-b]pyridin-6-yl)cyclopropanecarboxamide] |
| > 200 | N#CC1(CS(=O)(=O)N2CCN(c3cc(NC(=O)C4CC4)nc4[nH]ccc34)CC2)CC1 [Example 662, N-(4-(4-(((1-cyanocyclopropyl)methyl)sulfonyl)piperazin-1-yl)-1H-pyrrolo[2,3-b]pyridin-6-yl)cyclopropanecarboxamide] |
| > 200 | O=C(Nc1cc(N2CCN(S(=O)(=O)CCCF)CC2)c2cc[nH]c2n1)C1CC1 [Example 663, N-(4-(4-((3-fluoropropyl)sulfonyl)piperazin-1-yl)-1H-pyrrolo[2,3-b]pyridin-6-yl)cyclopropanecarboxamide] |
| > 200 | CCCS(=O)(=O)N1CCN(c2nc(NC(=O)C3CC3)nc3[nH]ccc23)CC1 [Example 668, N-(4-(4-(propylsulfonyl)piperazin-1-yl)-7H-pyrrolo[2,3-d]pyrimidin-2-yl)cyclopropanecarboxamide] |
| > 200 | CCCS(=O)(=O)N[C@H]1CCN(c2nc(NC(=O)C3CC3)nc3[nH]ccc23)C1 [Example 670, (S)—N-(4-(3-(propylsulfonamido)pyrrolidin-1-yl)-7H-pyrrolo[2,3-d]pyrimidin-2-yl)cyclopropanecarboxamide] |
| > 200 | C=CCS(=O)(=O)N[C@H]1CCN(c2nc(NC(=O)C3CC3)nc3[nH]ccc23)C1 [Example 671, (S)—N-(4-(3-(allylsulfonamido)pyrrolidin-1-yl)-7H-pyrrolo[2,3-d]pyrimidin-2-yl)cyclopropanecarboxamide] |
| > 200 | CCS(=O)(=O)N(C)[C@H]1CCN(c2cc(NC(=O)C3CC3)nc3[nH]ccc23)C1 [Example 672, (S)—N-(4-(3-(N-methylethylsulfonamido)pyrrolidin-1-yl)-1H-pyrrolo[2,3-b]pyridin-6-yl)cyclopropanecarboxamide] |
| > 200 | O=C(Nc1cc(N2CCN(S(=O)(=O)N3CCOCC3)CC2)c2cc[nH]c2n1)C1CC1 [Example 673, N-(4-(4-(morpholinosulfonyl)piperazin-1-yl)-1H-pyrrolo[2,3-b]pyridin-6-yl)cyclopropanecarboxamide] |
| > 200 | CN(C)S(=O)(=O)N1CCN(c2cc(NC(=O)C3CC3)nc3[nH]ccc23)CC1 [Example 674, N-(4-(4-(N,N-dimethylsulfamoyl)piperazin-1-yl)-1H-pyrrolo[2,3-b]pyridin-6-yl)cyclopropanecarboxamide] |
| > 200 | N#CCC(=O)NC1CCN(c2cc(NC(=O)C3CC3)nc3[nH]ccc23)CC1 [Example 675, N-(4-(4-(2-cyanoacetamido)piperidin-1-yl)-1H-pyrrolo[2,3-b]pyridin-6-yl)cyclopropanecarboxamide] |
| > 200 | N#CCC(=O)N1CCN(c2cc(NC(=O)C3CC3)nc3[nH]ccc23)CC1 [Example 676, N-(4-(4-(2-cyanoacetyl)piperazin-1-yl)-1H-pyrrolo[2,3-b]pyridin-6-yl)cyclopropanecarboxamide] |
